According to US9181234B2, “Antibacterial compounds” (priority 2010, dated 2015):
Converted amounts (≈) assume the structure as drawn.

Columns and labels:
[1] = system: Enterococcus faecalis (Isolate ID ATCC 29212); assay: Antibacterial activity, MIC, E. faecalis; format: cell-based; details: Enterococcus faecalis, ATCC29212; Gram positive strain; broth microdilution or agar dilution
Summary of the method: (§1)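 MICs were determined by broth microdilution or agar dilution following CLSI guidelines (M7-A7), testing susceptibility in liquid or on solid media.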

[2] = system: Staphylococcus aureus (Isolate ID ATCC 29213); assay: Antibacterial activity, MIC, S. aureus; format: cell-based; details: Staphylococcus aureus, ATCC29213, Gram positive strain; broth microdilution or agar dilution
Summary of the method: as §1

[3] = physchem; details: kinetic from dmso stock
Summary of the method: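 DMSO doubling dilutions were diluted twenty-fold into 100 mM citrate (pH 4), PBS (pH 7.4) or carbonate-bicarbonate (pH 9). After 24 h equilibration at room temperature, absorbance was read at 620 nm. The reported value is the highest concentration without measurable precipitate.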

[4] = system: Haemophilus influenzae (Isolate ID ATCC 49247); assay: Antibacterial activity, MIC, H. influenzae; format: cell-based; details: Haemophilus influenzae, ATCC49247; Gram negative strain; broth microdilution or agar dilution
Summary of the method: as §1

[5] = system: Streptococcus pyogenes (Isolate ID ATCC 51339); assay: Antibacterial activity, MIC, S. pyogenes; format: cell-based; details: Streptococcus pyogenes, ATCC51339, Gram positive strain; broth microdilution or agar dilution
Summary of the method: as §1

[6] = pH 7.4, aqueous buffer, Max Solubility
[7] = pH 7.4, aqueous buffer, Solubility (pH 7.4)
[8] = pH 7.4, aqueous buffer, Solubility Range
[9] = pH 7.4, aqueous buffer, Solubility Range (maximum solubility)
[10] = pH 9, aqueous buffer, Max Solubility
[11] = pH 9, aqueous buffer, Solubility Range (maximum solubility)

| Compound | MIC [1] [µg/mL] | MIC [2] [µg/mL] | solubility at 24 h [3, 6] [µg/mL] | solubility at 24 h [3, 7] [µg/mL] | solubility at 24 h [3, 8] [µg/mL] | solubility at 24 h [3, 9] [µg/mL] | MIC [4] [µg/mL] | MIC [5] [µg/mL] | solubility at 24 h [3, 10] [µg/mL] | solubility at 24 h [3, 11] [µg/mL] | solubility at 24 h ([3]; pH 4, aqueous buffer, Max Solubility) [µg/mL] | solubility at 24 h ([3]; pH 4, aqueous buffer, Solubility Range (maximum solubility)) [µg/mL] |
| --- | --- | --- | --- | --- | --- | --- | --- | --- | --- | --- | --- | --- |
| CCNC(=O)Nc1nc2cc(-c3cnc(N4CCC(C)(C(=O)O)CC4)nc3)cc(C(=O)N(C)CC)c2s1 [Compound 91, 1-[5-[2-(ethylcarbamoylamino)-7-[ethyl(methyl)carbamoyl]-1,3-benzothiazol-5-yl]pyrimidin-2-yl]-4-methyl-piperidine-4-carboxylic acid] | 1 to 16 (≈ 1.9 to 30.4 µM) | > 16 | ≥ 800 | ≥ 800 | > 800 | > 800 | > 16 | > 16 | – | – | – | – |
| CCNC(=O)Nc1nc2cc(-c3cnc(N4CCC(CC)(C(=O)O)CC4)nc3)cc(-c3ccc(C#N)cn3)c2s1 [Compound 105] | ≤ 0.25 | ≤ 0.25 | ≥ 800 | ≥ 800 | > 800 | > 800 | 1 to 16 (≈ 1.8 to 28.7 µM) | ≤ 0.25 | – | – | – | – |
| CCNC(=O)Nc1nc2cc(-c3cnc(N4CCC(CC)(C(=O)O)CC4)nc3)cc(-c3nccc(OC)n3)c2s1 [Compound 109] | ≤ 0.25 | ≤ 0.25 | ≥ 800 | ≥ 800 | > 800 | > 800 | > 16 | ≤ 0.25 | – | – | – | – |
| CCCC1(C(=O)O)CCN(c2ncc(-c3cc(-c4ncnc5[nH]ccc45)c4sc(NC(=O)NCC)nc4c3)cn2)CC1 [Compound 125] | ≤ 0.25 | 0.25 to 1 (≈ 0.427 to 1.71 µM) | – | 50 (≈ 85.4 µM) | 12.5 to 400 (≈ 21.3 to 683 µM) | – | > 16 | ≤ 0.25 | ≥ 800 | > 800 | – | – |
| CCNC(=O)Nc1nc2cc(-c3cnc(N4CCC(C)(C(=O)O)CC4)nc3)cc(-c3cc(F)ccn3)c2s1 [Compound 10] | ≤ 0.25 | ≤ 0.25 | – | 100 (≈ 187 µM) | 12.5 to 400 (≈ 23.3 to 747 µM) | – | 1 to 16 (≈ 1.87 to 29.9 µM) | ≤ 0.25 | – | – | – | – |
| CCNC(=O)Nc1nc2cc(-c3cnc(N4CCC(C(=O)O)(c5ccccc5)CC4)nc3)cc(-c3ccccn3)c2s1 [Compound 129] | ≤ 0.25 | 0.25 to 1 (≈ 0.431 to 1.73 µM) | – | 12.5 (≈ 21.6 µM) | 12.5 to 400 (≈ 21.6 to 690 µM) | – | > 16 | 0.25 to 1 (≈ 0.431 to 1.73 µM) | – | – | – | – |
| CCNC(=O)Nc1nc2cc(-c3cnc(N4CCC(F)(C(=O)O)CC4)nc3)cc(-c3ccccn3)c2s1 [Compound 135] | ≤ 0.25 | 1 to 16 (≈ 1.92 to 30.7 µM) | – | 400 (≈ 767 µM) | 400 to 800 (≈ 767 to 1530 µM) | – | 1 to 16 (≈ 1.92 to 30.7 µM) | ≤ 0.25 | – | – | – | – |
| CCNC(=O)Nc1nc2cc(-c3cnc(N4CCC(CC)(C(=O)O)CC4)nc3)cc(-c3nccc(C)n3)c2s1 [Compound 101] | ≤ 0.25 | ≤ 0.25 | – | ≥ 800 | > 800 | – | 1 to 16 (≈ 1.83 to 29.3 µM) | ≤ 0.25 | – | – | – | – |
| CCNC(=O)Nc1nc2cc(-c3cnc(N4CCC(C)(C(=O)O)CC4)nc3)cc(-c3cncc(OC(C)(C)C)n3)c2s1 [Compound 73] | ≤ 0.25 | 0.25 to 1 (≈ 0.423 to 1.69 µM) | – | 400 (≈ 677 µM) | 400 to 800 (≈ 677 to 1350 µM) | – | > 16 | 1 to 16 (≈ 1.69 to 27.1 µM) | ≥ 800 | > 800 | – | – |
| C#Cc1cc(-c2cnc(N3CCC(C)(C(=O)O)CC3)nc2)cc2nc(NC(=O)NCC)sc12 [Compound 28] | ≤ 0.25 | 0.25 to 1 (≈ 0.538 to 2.15 µM) | – | ≥ 800 | > 800 | – | 1 to 16 (≈ 2.15 to 34.4 µM) | 0.25 to 1 (≈ 0.538 to 2.15 µM) | – | – | – | – |
| CCNC(=O)Nc1nc2cc(-c3cnc(N4CCC(=O)C(C)(C(=O)OC)C4)nc3)cc(-c3ccccn3)c2s1 (stereo not shown) [Compound 170] | ≤ 0.25 | 0.25 to 1 (≈ 0.458 to 1.83 µM) | – | 6.25 (≈ 11.5 µM) | < 12.5 | – | > 16 | 0.25 to 1 (≈ 0.458 to 1.83 µM) | – | – | – | – |
| CCNC(=O)Nc1nc2cc(-c3cnc(N4CCC(C)(C(=O)O)CC4)nc3)cc(-c3cnn(C)c3)c2s1 [Compound 24] | ≤ 0.25 | 1 to 16 (≈ 1.92 to 30.7 µM) | – | ≥ 800 | > 800 | – | 1 to 16 (≈ 1.92 to 30.7 µM) | 0.25 to 1 (≈ 0.48 to 1.92 µM) | – | – | – | – |
| CCNC(=O)Nc1nc2cc(-c3cnc(N4CCC(C)(C(=O)O)CC4)nc3)cc(-c3cc(C)c(C#N)cn3)c2s1 [Compound 92] | ≤ 0.25 | ≤ 0.25 | – | 6.25 (≈ 11.2 µM) | < 12.5 | – | 0.25 to 1 (≈ 0.449 to 1.8 µM) | ≤ 0.25 | – | – | 12.5 (≈ 22.5 µM) | 12.5 to 400 (≈ 22.5 to 719 µM) |
| CCNC(=O)Nc1nc2cc(-c3cnc(N4CCC(C)(C(=O)O)CC4)nc3)cc(C#Cc3ccncn3)c2s1 [Compound 155] | ≤ 0.25 | 1 to 16 (≈ 1.84 to 29.5 µM) | – | 400 (≈ 737 µM) | 400 to 800 (≈ 737 to 1470 µM) | – | 1 to 16 (≈ 1.84 to 29.5 µM) | 0.25 to 1 (≈ 0.461 to 1.84 µM) | ≥ 800 | > 800 | – | – |

Results, then the compound that gave them:

| MIC [1] [µg/mL] | MIC [2] [µg/mL] | solubility at 24 h [3, 6] [µg/mL] | solubility at 24 h [3, 7] [µg/mL] | solubility at 24 h [3, 8] [µg/mL] | solubility at 24 h [3, 9] [µg/mL] | MIC [4] [µg/mL] | MIC [5] [µg/mL] | solubility at 24 h [3, 10] [µg/mL] | solubility at 24 h [3, 11] [µg/mL] | solubility at 24 h ([3]; pH 4, aqueous buffer, Max Solubility) [µg/mL] | solubility at 24 h ([3]; pH 4, aqueous buffer, Solubility Range (maximum solubility)) [µg/mL] | Compound |
| --- | --- | --- | --- | --- | --- | --- | --- | --- | --- | --- | --- | --- |
| 1 to 16 (≈ 1.88 to 30.1 µM) | 1 to 16 (≈ 1.88 to 30.1 µM) | ≥ 800 | ≥ 800 | > 800 | > 800 | 1 to 16 (≈ 1.88 to 30.1 µM) | 1 to 16 (≈ 1.88 to 30.1 µM) | – | – | – | – | CCNC(=O)Nc1nc2cc(-c3cnc(CN4CCC(C)(C(=O)O)CC4)nc3)cc(-c3ccccn3)c2s1 [Compound 160] |
| ≤ 0.25 | ≤ 0.25 | – | ≥ 800 | > 800 | – | 1 to 16 (≈ 1.81 to 28.9 µM) | ≤ 0.25 | – | – | – | – | CCNC(=O)Nc1nc2cc(-c3cnc(N4CCC(C)(C(=O)O)CC4)nc3)cc(-c3csc(OC)n3)c2s1 [Compound 23, 1-[5-[2-(ethylcarbamoylamino)-7-(2-methoxythiazol-4-yl)-1,3-benzothiazol-5-yl]pyrimidin-2-yl]-4-methyl-piperidine-4-carboxylic acid] |
| ≤ 0.25 | ≤ 0.25 | – | 100 (≈ 175 µM) | 12.5 to 400 (≈ 21.9 to 700 µM) | – | 1 to 16 (≈ 1.75 to 28 µM) | ≤ 0.25 | ≥ 800 | > 800 | – | – | CCNC(=O)Nc1nc2cc(-c3cnc(N4CCC(C)(C(=O)O)CC4)nc3)cc(C#Cc3cccc(OC)n3)c2s1 [Compound 152, 1-[5-[2-(ethylcarbamoylamino)-7-[2-(6-methoxy-2-pyridyl)ethynyl]-1,3-benzothiazol-5-yl]pyrimidin-2-yl]-4-methyl-piperidine-4-carboxylic acid] |
| 1 to 16 (≈ 1.69 to 27 µM) | > 16 | 400 (≈ 675 µM) | 400 (≈ 675 µM) | 400 to 800 (≈ 675 to 1350 µM) | 400 to 800 (≈ 675 to 1350 µM) | 1 to 16 (≈ 1.69 to 27 µM) | 1 to 16 (≈ 1.69 to 27 µM) | – | – | – | – | CCNC(=O)Nc1nc2cc(-c3cnc(N4CCC(C)(C(=O)O)CC4)nc3)cc(-c3cc(=O)n(CCOC)cn3)c2s1 [Compound 80] |
| > 16 | > 16 | – | 100 (≈ 164 µM) | 12.5 to 400 (≈ 20.5 to 656 µM) | – | > 16 | 0.25 to 1 (≈ 0.41 to 1.64 µM) | – | – | – | – | CCNC(=O)Nc1nc2cc(-c3cnc(N4CCC(C(=O)OCC)(S(C)(=O)=O)CC4)nc3)cc(-c3ccccn3)c2s1 [Compound 176] |
| ≤ 0.25 | 0.25 to 1 (≈ 0.444 to 1.78 µM) | – | 100 (≈ 178 µM) | 12.5 to 400 (≈ 22.2 to 711 µM) | – | 1 to 16 (≈ 1.78 to 28.4 µM) | 0.25 to 1 (≈ 0.444 to 1.78 µM) | 400 (≈ 711 µM) | 400 to 800 (≈ 711 to 1420 µM) | – | – | CCNC(=O)Nc1nc2cc(-c3cnc(N4CCC(C)(C(=O)O)CC4)nc3)cc(C#Cc3nnc(C)s3)c2s1 [Compound 153] |
| ≤ 0.25 | ≤ 0.25 | – | ≥ 800 | > 800 | – | 1 to 16 (≈ 1.78 to 28.5 µM) | ≤ 0.25 | – | – | – | – | CCNC(=O)Nc1nc2cc(-c3cnc(N4CCC(CC)(C(=O)O)CC4)nc3)cc(-c3cc(OC)ccn3)c2s1 [Compound 102] |
